Source: patent publication US20260262643A1, “HERBICIDAL BENZOXAZINES” (FMC CORPORATION, priority 2022, published 2026)
Where two headings read alike, the source gives them in different places.

How the values were obtained:
goosegrass = test: Test A postemergence; format: in vivo, Eleusine indica; conditions: Eleusine indica, post-emergence, 240 h; for pest or weed control at 125 g/ha: 125 g ai/ha; for pest or weed control at 500 g/ha: 500 g ai/ha
Method in brief: (§1)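 Loam/sand soil; pre-em directed soil spray at planting, post-em spray at 1–2 leaf (2–10 cm). Compound in non-phytotoxic solvent + surfactant. Greenhouse 10 d; visual injury vs untreated, 0 = no effect, 100 = complete control.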

soybean = test: Test A preemergence; format: in vivo, Glycine max; conditions: Glycine max, pre-emergence, 240 h, read-out: Plant response rating, Soybean; for plant injury at 125 g/ha: 125 g ai/ha; for plant injury at 500 g/ha: 500 g ai/ha
Method in brief: as §1

blackgrass [1] = test: Test A preemergence; format: in vivo, Alopecurus myosuroides; conditions: Alopecurus myosuroides, pre-emergence, 240 h, read-out: Plant response rating, Blackgrass; for pest or weed control at 125 g/ha: 125 g ai/ha; for pest or weed control at 500 g/ha: 500 g ai/ha
Method in brief: as §1

ducksalad = test: Test B flooded paddy test; format: in vivo, Heteranthera limosa; conditions: Heteranthera limosa, 312 h, 250 g ai/ha, Flood, 13 days, 0 to 100 scale (0 no effect, 100 complete control); read-out: Plant response rating, Ducksalad
Method in brief: (§2)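 Percent weed or crop control, judged by eye on a 0–100 scale 13 days post-treatment, reflects compound added to a 3 cm flood maintained over 2-leaf plants in the greenhouse. Missing entries are marked with a dash.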

blackgrass [2] = test: Test A postemergence; format: in vivo, Alopecurus myosuroides; conditions: Alopecurus myosuroides, post-emergence, 240 h; for pest or weed control at 125 g/ha: 125 g ai/ha; for pest or weed control at 500 g/ha: 500 g ai/ha
Method in brief: as §1

wheat [3] = test: Test A preemergence; format: in vivo, Triticum aestivum; conditions: Triticum aestivum, pre-emergence, 240 h, read-out: Plant response rating, Wheat; for plant injury at 125 g/ha: 125 g ai/ha; for plant injury at 500 g/ha: 500 g ai/ha
Method in brief: as §1

ragweed [4] = test: Test A preemergence; format: in vivo, Ambrosia artemisiifolia; conditions: Ambrosia artemisiifolia, pre-emergence, 240 h, read-out: Plant response rating, Ragweed; for pest or weed control at 125 g/ha: 125 g ai/ha; for pest or weed control at 500 g/ha: 500 g ai/ha
Method in brief: as §1

kochia [5] = test: Test A preemergence; format: in vivo, Bassia scoparia; conditions: Bassia scoparia, pre-emergence, 240 h, read-out: Plant response rating, Kochia; for pest or weed control at 125 g/ha: 125 g ai/ha; for pest or weed control at 500 g/ha: 500 g ai/ha
Method in brief: as §1

ragweed [6] = test: Test A postemergence; format: in vivo, Ambrosia artemisiifolia; conditions: Ambrosia artemisiifolia, post-emergence, 240 h; for pest or weed control at 125 g/ha: 125 g ai/ha; for pest or weed control at 500 g/ha: 500 g ai/ha
Method in brief: as §1

rice = test: Test B flooded paddy test; format: in vivo, Oryza sativa; conditions: Oryza sativa, 312 h; 250 g ai/ha, Flood, 13 days, 0 to 100 scale (0 no effect, 100 complete control); read-out: Plant response rating, Rice
Method in brief: as §2

kochia [7] = test: Test A postemergence; format: in vivo, Bassia scoparia; conditions: Bassia scoparia, post-emergence, 240 h; for pest or weed control at 125 g/ha: 125 g ai/ha; for pest or weed control at 500 g/ha: 500 g ai/ha
Method in brief: as §1

wheat [8] = test: Test A postemergence; format: in vivo, Triticum aestivum; conditions: Triticum aestivum, post-emergence, 240 h; for plant injury at 125 g/ha: 125 g ai/ha; for plant injury at 500 g/ha: 500 g ai/ha
Method in brief: as §1

foxtail, giant = test: Test A postemergence; format: in vivo, Setaria faberi; conditions: Setaria faberi, post-emergence, 240 h; for pest or weed control at 125 g/ha: 125 g ai/ha; for pest or weed control at 500 g/ha: 500 g ai/ha
Method in brief: as §1

corn = test: Test A preemergence; format: in vivo, Zea mays; conditions: Zea mays, pre-emergence, 240 h; for Corn plant response rating (crop injury, 0 = no effect, 100 = complete kill) at 125 g/ha: 125 g ai/ha; for Corn plant response rating (crop injury, 0 = no effect, 100 = complete kill) at 500 g/ha: 500 g ai/ha
Method in brief: as §1

[9] = postemergence, 10 days, visual injury, 0 to 100 scale (0 no effect, 100 complete control), read-out: Plant response rating, Goosegrass
[10] = visual injury after 10 days, 0 to 100 scale, 0 is no effect, 100 is complete control
[11] = 0 to 100 scale (0 no effect, 100 complete control), 10 days
[12] = postemergence, 10 days, visual injury, 0 to 100 scale (0 no effect, 100 complete control), read-out: Plant response rating, Blackgrass
[13] = postemergence, 10 days, visual injury, 0 to 100 scale (0 no effect, 100 complete control), read-out: Plant response rating, Ragweed
[14] = postemergence, 10 days, visual injury, 0 to 100 scale (0 no effect, 100 complete control), read-out: Plant response rating, Kochia
[15] = postemergence, 10 days, visual injury, 0 to 100 scale (0 no effect, 100 complete control), read-out: Plant response rating, Wheat
[16] = postemergence, 10 days, visual injury, 0 to 100 scale (0 no effect, 100 complete control), read-out: Plant response rating, Foxtail, Giant

## C#Cc1ncn(-c2cccc(C(=O)N3C[C@H](C)Oc4c(C)cccc43)c2)n1 [Compound 64, [(2S)-2,3-Dihydro-2,8-dimethyl-4H-1,4-benzoxazin-4-yl][3-(3-ethynyl-1H-1,2,4-triazol-1-yl)phenyl]methanone]
goosegrass; [9]
  pest or weed control at 125 g/ha: 10%
goosegrass; Postemergence, 0 to 100 scale, read-out: Plant response rating, Goosegrass
  pest or weed control at 500 g/ha: 30%
soybean; [10]
  plant injury at 125 g/ha: 20%
soybean; [11]
  plant injury at 500 g/ha: 30%
Blackgrass [1]; [10]
  pest or weed control at 125 g/ha: 80%
Blackgrass [1]; [11]
  pest or weed control at 500 g/ha: 90%
ducksalad
  pest or weed control at 250 g/ha: 25%
Blackgrass [2]; [12]
  pest or weed control at 125 g/ha: 40%
Blackgrass [2]; Postemergence, 0 to 100 scale, read-out: Plant response rating, Blackgrass
  pest or weed control at 500 g/ha: 70%
Wheat [3]; [10]
  plant injury at 125 g/ha: 20%
Wheat [3]; [11]
  plant injury at 500 g/ha: 40%
Ragweed [4]; [10]
  pest or weed control at 125 g/ha: 0%
Ragweed [4]; [11]
  pest or weed control at 500 g/ha: 0%
Kochia [5]; [10]
  pest or weed control at 125 g/ha: 80%
Kochia [5]; [11]
  pest or weed control at 500 g/ha: 90%
Ragweed [6]; [13]
  pest or weed control at 125 g/ha: 0%
Ragweed [6]; Postemergence, 0 to 100 scale, read-out: Plant response rating, Ragweed
  pest or weed control at 500 g/ha: 40%
rice
  plant injury at 250 g/ha: 0%
Kochia [7]; [14]
  pest or weed control at 125 g/ha: 60%
Kochia [7]; Postemergence, 0 to 100 scale, read-out: Plant response rating, Kochia
  pest or weed control at 500 g/ha: 80%
Wheat [8]; [15]
  plant injury at 125 g/ha: 10%
Wheat [8]; Postemergence, 0 to 100 scale, read-out: Plant response rating, Wheat
  plant injury at 500 g/ha: 40%
foxtail, giant; [16]
  pest or weed control at 125 g/ha: 20%
foxtail, giant; Postemergence, 0 to 100 scale, read-out: Plant response rating, Foxtail, Giant
  pest or weed control at 500 g/ha: 90%
corn; [10]
  Corn plant response rating (crop injury, 0 = no effect, 100 = complete kill) at 125 g/ha: 20%
corn; [11]
  Corn plant response rating (crop injury, 0 = no effect, 100 = complete kill) at 500 g/ha: 50%

## Cc1cccc2c1O[C@@H](C)CN2C(=O)c1cccc(-n2cn[nH]c2=O)c1 [Compound 122, 4-[3-[[(2S)-2,3-Dihydro-2,8-dimethyl-4H-1,4-benzoxazin-4-yl]carbonyl]phenyl]-2,4-dihydro-3H-1,2,4-triazol-3-one]
goosegrass; postemergence, 10 days, 0 to 100 scale (0 no effect, 100 complete control), read-out: Goosegrass plant response rating
  pest or weed control at 125 g/ha: 0%
goosegrass; [9]
  pest or weed control at 500 g/ha: 60%
soybean; [10]
  plant injury at 125 g/ha: 0%
  plant injury at 500 g/ha: 0%
Blackgrass [1]; [10]
  pest or weed control at 125 g/ha: 10%
  pest or weed control at 500 g/ha: 50%
ducksalad
  pest or weed control at 250 g/ha: 0%
Blackgrass [2]; postemergence, 10 days, 0 to 100 scale (0 no effect, 100 complete control), read-out: Blackgrass plant response rating
  pest or weed control at 125 g/ha: 0%
Blackgrass [2]; [12]
  pest or weed control at 500 g/ha: 50%
Wheat [3]; [10]
  plant injury at 125 g/ha: 0%
  plant injury at 500 g/ha: 0%
Ragweed [4]; [10]
  pest or weed control at 125 g/ha: 0%
  pest or weed control at 500 g/ha: 0%
Kochia [5]; [10]
  pest or weed control at 125 g/ha: 0%
  pest or weed control at 500 g/ha: 10%
Ragweed [6]; postemergence, 10 days, 0 to 100 scale (0 no effect, 100 complete control), read-out: Ragweed plant response rating
  pest or weed control at 125 g/ha: 0%
Ragweed [6]; [13]
  pest or weed control at 500 g/ha: 0%
rice
  plant injury at 250 g/ha: 0%
Kochia [7]; postemergence, 10 days, 0 to 100 scale (0 no effect, 100 complete control), read-out: Kochia plant response rating
  pest or weed control at 125 g/ha: 30%
Kochia [7]; [14]
  pest or weed control at 500 g/ha: 50%
Wheat [8]; postemergence, 10 days, 0 to 100 scale (0 no effect, 100 complete control), read-out: Wheat plant response rating
  plant injury at 125 g/ha: 10%
Wheat [8]; [15]
  plant injury at 500 g/ha: 10%
foxtail, giant; postemergence, 10 days, 0 to 100 scale (0 no effect, 100 complete control), read-out: Foxtail, Giant plant response rating
  pest or weed control at 125 g/ha: 20%
foxtail, giant; [16]
  pest or weed control at 500 g/ha: 50%
corn; [10]
  Corn plant response rating (crop injury, 0 = no effect, 100 = complete kill) at 125 g/ha: 0%
  Corn plant response rating (crop injury, 0 = no effect, 100 = complete kill) at 500 g/ha: 10%
